From patent US20250345329A1, “HETEROARYL DERIVATIVE COMPOUND AND USES THEREOF” (VORONOI, INC., priority 2022, published 2025)

What was measured:
[1] = target: T1, human EGFR (d746-750/T790M/C797S) (Homo sapiens, UniProt P00533, C797S/DEL746-750/T790M); assay: EGFR C797S enzyme inhibition activity (ADP-Glo kinase assay); assay type: biochemical; conditions: purified enzyme 3 ng, ATP 5 μM, 25° C., 1 hour, luminescence; read-out: EGFR DTC Enzyme IC50
T1 construct: human EGFR (d746-750/T790M/C797S) (668-end, SignalChem); purchased SignalChem
Protocol: <Experimental Example 1> Evaluation of EGFR C797S Enzyme Inhibition Activity
The compounds according to the present invention were reacted together with purified human EGFR (d746-750/T790M/C797S) (668-end, SignalChem) enzyme and a specific substrate and evaluated for enzyme inhibitory activity as described below. The reaction buffer consisted of 40 mM Tris-HCl pH 7.4, 20 mM MgCl2, 0.5 mg/ml BSA, and 50 μM DTT, and all reactions of the test substances were performed in reaction buffers. The compounds were serially diluted in 12 steps from a 10 mM DMSO stock, and the enzyme activity was measured at the final compound concentrations of 10, 3, 1, 0.3, 0.1, 0.03, 0.01, 0.003, 0.001, 0.0003, 0.0001, and 0 μM. In the assay, human EGFR (d746-750/T790M/C797S) (3 ng) enzyme was reacted with purified ATP (5 μM) and enzyme substrate (0.2 μg) at 25° C. for 1 hour, and the enzyme activity was determined using the in vitro ADP-Glo™ kinase assay (Promega). The enzyme activity inhibition was measured via luminescence by reacting the enzyme activity reaction solution, ADP-Glo reaction solution, and enzyme activity detection solution in a 2:2:1 ratio. Based on the luminescence of the enzyme activity of the solvent control group that was not treated with the compound, the degree of the enzyme activity inhibition depending on the treatment concentration of each compound was calculated, wherein the concentration of each compound that inhibited the enzyme activity by 50% was determined as the IC50 (nM) value, which was obtained using GraphPad Prism 8.4.3 (GraphPad software Inc., San Diego).

[2] = test system: Ba/F3 expressing EGFR Del19/T790M/C797S mutations; assay: Inhibitory activity on proliferation of Ba/F3 cell overexpressing EGFR C797S (Cell Titer-Glo); assay type: cell-based; conditions: Mus musculus, BaF3; 72 hours treatment, cell growth rate vs control; read-out: Ba/F3 (EGFR DTC) GI50
Protocol: <Experimental Example 2> Evaluation of Inhibitory Activity on Proliferation of Ba/F3 Cell Overexpressing EGFR C797S
The following experiments were performed to evaluate the inhibitory activity of the compounds according to the present invention on the proliferation of Ba/F3 expressing EGFR Del19/T790M/C797S mutations.
Ba/F3 cells were cultured in RPMI-1640 medium supplemented with 10% fetal bovine serum (FBS), and 3000 cells were seeded into each well of a white clear bottom 96 well plate (Corning) 24 hours prior to compound treatment. The compounds were diluted in dimethyl sulfoxide (3-fold dilution, total of 12 concentrations) and injected at 1 μl each so that the final concentration was […] to 5 μM. After 72 hours post treatment with compounds, living cells were reacted in a 37° C., CO2 incubator for […], followed by 10 minutes at room temperature using Cell Titer-Glo luminescent cell-viability reagent (Promega), and the luminescence intensity thereof was measured using a reader (SynergyNeo2, Biotek). The result values were calculated as a cell growth rate (%) compared to the control group. GI50 values were calculated using the GraphPad Prism version 8.4.3 (GraphPad software Inc., San Diego) program.

T1 sequence (P00533 with tags, fused parts or gaps DEL746-750/T790M/C797S): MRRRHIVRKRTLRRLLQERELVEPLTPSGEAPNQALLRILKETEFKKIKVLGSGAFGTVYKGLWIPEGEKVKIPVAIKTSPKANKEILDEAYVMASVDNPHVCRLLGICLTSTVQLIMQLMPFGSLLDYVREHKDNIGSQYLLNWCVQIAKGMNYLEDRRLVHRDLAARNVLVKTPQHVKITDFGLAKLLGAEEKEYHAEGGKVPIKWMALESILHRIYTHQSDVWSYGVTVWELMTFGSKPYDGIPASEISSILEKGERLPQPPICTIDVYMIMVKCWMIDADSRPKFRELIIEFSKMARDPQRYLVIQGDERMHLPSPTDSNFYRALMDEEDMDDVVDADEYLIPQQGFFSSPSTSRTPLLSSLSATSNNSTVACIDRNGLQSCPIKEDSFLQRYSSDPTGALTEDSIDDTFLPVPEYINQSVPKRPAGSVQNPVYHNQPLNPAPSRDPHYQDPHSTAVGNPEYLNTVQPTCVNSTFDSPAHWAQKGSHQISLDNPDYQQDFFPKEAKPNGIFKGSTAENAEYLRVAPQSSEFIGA

Row | Compound | IC50 [1] [µM] | GI50 [2] [µM]
1 | CC(C)Nc1cc(Nc2ccnc(-c3cnn(S(=O)(=O)C4CC4)c3)n2)ncc1C(=O)N1CC2(C1)CN(S(C)(=O)=O)C2 [Example 66, (6-((2-(1-(cyclopropylsulfonyl)-1H-pyrazol-4-yl)pyrimidin-4-yl)amino)-4-(isopropylamino)pyri-din-3-yl)(6-(methylsulfonyl)-2,6-diazaspiro[3.3]heptan-2-yl)methanone] | < 0.05 | 0.5 to 5
2 | CC(C)Nc1cc(Nc2ccnc(-c3cnn(S(=O)(=O)C4CC4)c3)n2)ncc1C(=O)N1CC(C#N)C1 [Example 9, 1-(6-((2-(1-(cyclopropylsulfonyl)-1H-pyrazol-4-yl)pyrimidin-4-yl)amino)-4-(isopropylamino)nico-tinoyl)azetidine-3-carbonitrile] | < 0.05 | 0.5 to 5
3 | CO[C@H]1CCN(c2nccc(Nc3cc(NC(C)C)c(C(=O)Nc4cc(N5CCN(C)CC5)cc(C(C)(C)C#N)c4)cn3)n2)C[C@H]1F (relative stereo) [Example 42, N-(3-(2-cyanopropan-2-yl)-5-(4-methylpiperazin-1-yl)phenyl)-6-((2-(cis-3-fluoro-4-methoxypiperidin-1-yl)pyrimidin-4-yl)amino)-4-(isopropylamino)nico-tinamide] | < 0.05 | 0.5 to 5
4 | CC(C)Nc1cc(Nc2ccnc(-c3cnn(S(=O)(=O)C4CC4)c3)n2)ncc1C(=O)Nc1cccc(N2CCN(C)CC2)c1 [Example 39, 6-((2-(1-(cyclopropylsulfonyl)-1H-pyrazol-4-yl)pyrimidin-4-yl)amino)-4-(isopropylamino)-N-(3-(4-methylpiperazin-1-yl)phenyl)nicotinamide] | < 0.05 | 0.5 to 5
5 | CC(C)Nc1cc(Nc2ccnc(-c3cnn(S(=O)(=O)C4CC4)c3)n2)ncc1C(=O)NCC#N [Example 72, N-(cyanomethyl)-6-((2-(1-(cyclopropylsulfonyl)-1H-pyrazol-4-yl)pyrimidin-4-yl)amino)-4-(isoporpylamino)nico-tinamide] | < 0.05 | < 0.5
6 | CC(C)Nc1cc(Nc2ccnc(-c3cnn(S(=O)(=O)C4CC4)c3)n2)ncc1C(=O)NCCC(F)(F)F [Example 82, 6-((2-(1-(cyclopropylsulfonyl)-1H-pyrazol-4-yl)pyrimidin-4-yl)amino)-4-(isopropylamino)-N-(3,3,3-trifluoropropyl)nico-tinamide] | < 0.05 | < 0.5
7 | CC(C)Nc1cc(Nc2ccnc(-c3cnn(S(=O)(=O)C4CC4)c3)n2)ncc1C(=O)NC1CCN(C(=O)OC(C)(C)C)C1 (centres unmarked) [Example 47, tert-butyl 3-(6-((2-(1-(cyclopropylsulfonyl)-1H-pyrazol-4-yl)pyrimidin-4-yl)amino)-4-(isopropylamino)nico-tinamido)pyrrolidine-1-carboxylate] | 0.05 to 0.5 | 0.5 to 5
8 | CC1CCCOc2c(cnn2C)-c2nccc(n2)Nc2cc(c(C(=O)NCCCC(F)(F)F)cn2)N1 (centres unmarked) [Example 116, 1^1,6-dimethyl-N-(4,4,4-trifluorobutyl)-1^1H-10-oxa-3,5-diaza-2(2,4)-pyrimidina-4(2,4)-pyridina-1(4,5)-pyrazolacyclo-decaphane-4^5-carboxamide] | < 0.05 | < 0.5
9 | CC(C)Nc1cc(Nc2ccnc(-c3cnn(S(=O)(=O)C4CC4)c3)n2)ncc1C(=O)N[C@@H](C(C)C)C(F)(F)F [Example 79, (S)-6-((2-(1-(cyclopropylsulfonyl)-1H-pyrazol-4-yl)pyrimidin-4-yl)amino)-4-(isopropylamino)-N-(1,1,1-trifluoro-3-methylbutan-2-yl)nicotinamide] | 0.05 to 0.5 | 0.5 to 5
10 | CC(C)Nc1cc(Nc2ccnc(-c3cnn(S(=O)(=O)C4CC4)c3)n2)ncc1C(=O)Nc1cc(CN2CCN(C)CC2)cc(C(F)(F)F)c1 [Example 25, 6-((2-(1-(cyclopropylsulfonyl)-1H-pyrazol-4-yl)pyrimidin-4-yl)amino)-4-(isopropylamino)-N-(3-((4-methylpiperazin-1-yl)methyl)-5-(trifluoromethyl)phe-nyl)nicotinamide] | 0.05 to 0.5 | 0.5 to 5
11 | CC(C)Nc1cc(Nc2ccnc(-c3cnn(S(=O)(=O)C4CC4)c3)n2)ncc1C(=O)NCCS(=O)(=O)C(C)C [Example 74, 6-((2-(1-(cyclopropylsulfonyl)-1H-pyrazol-4-yl)pyrimidin-4-yl)amino)-4-(isopropylamino)-N-(2-(isopropylsulfonyl)eth-yl)nicotinamide] | < 0.05 | 0.5 to 5
12 | CO[C@H]1CCN(c2nccc(Nc3cc(NC(C)C)c(C(=O)N4CC(C#N)C4)cn3)n2)C[C@H]1F (relative stereo) [Example 17, 1-(6-((2-(cis-3-fluoro-4-methoxypiperidin-1-yl)pyrimidin-4-yl)amino)-4-(isopropylamino)nico-tinoyl)azetidine-3-carbonitrile] | < 0.05 | 0.5 to 5
13 | CC(C)Nc1cc(Nc2ccnc(-c3cnn(S(=O)(=O)C4CC4)c3)n2)ncc1C(=O)NC1CN(C(=O)OC(C)(C)C)C1 [Example 46, tert-butyl 3-(6-((2-(1-(cyclopropylsulfonyl)-1H-pyrazol-4-yl)pyrimidin-4-yl)amino)-4-(isopropylamino)nico-tinamido)azetidine-1-carboxylate] | 0.05 to 0.5 | 0.5 to 5
14 | COC(=O)CCNC(=O)c1cnc(Nc2ccnc(-c3cnn(S(=O)(=O)C4CC4)c3)n2)cc1NC(C)C [Example 50, methyl 3-(6-((2-(1-(cyclopropylsulfonyl)-1H-pyrazol-4-yl)pyrimidin-4-yl)amino)-4-(isopropylamino)nico-tinamido)propanoate] | < 0.05 | 0.5 to 5
15 | C[C@H]1CCOc2c(cnn2C)-c2nccc(n2)Nc2cc(c(C(=O)NCCS(C)(=O)=O)cn2)N1 [Example 110, (S)-1^1,6-dimethyl-N-(2-(methylsulfonyl)ethyl)-1^1H-9-oxa-3,5-diaza-2(2,4)-pyrimidina-4(2,4)-pyridina-1(4,5)-pyrazolacyclo-nonaphane-4^5-carboxamide] | < 0.05 | 0.5 to 5
16 | CC(C)Nc1cc(Nc2ccnc(-c3cnn(S(=O)(=O)C4CC4)c3)n2)ncc1C(=O)NC1CCS(=O)(=O)C1 (centres unmarked) [Example 36, 6-((2-(1-(cyclopropylsulfonyl)-1H-pyrazol-4-yl)pyrimidin-4-yl)amino)-N-(1,1-dioxydotetrahydrothi-ophen-3-yl)-4-(isopropylamino)nico-tinamide] | < 0.05 | 0.5 to 5
17 | C[C@H]1CCOc2c(cnn2C)-c2nccc(n2)Nc2cc(c(C(=O)NCC3CCCC3)cn2)N1 [Example 86, (S)-N-(cyclopentylmethyl)-1^1,6-dimethyl-1^1H-9-oxa-3,5-diaza-2(2,4)-pyrimidina-4(2,4)-pyridina-1(4,5)-pyrazolacyclo-nonaphane-4^5-carboxamide] | < 0.05 | < 0.5
18 | CC(C)Nc1cc(Nc2ccnc(-c3cnn(S(=O)(=O)C4CC4)c3)n2)ncc1C(=O)NCCN1CCCC1 [Example 68, 6-((2-(1-(cyclopropylsulfonyl)-1H-pyrazol-4-yl)pyrimidin-4-yl)amino)-4-(isopropylamino)-N-(2-(pyrrolidin-1-yl)ethyl)nicotinamide] | < 0.05 | 0.5 to 5
19 | CC(C)Nc1cc(Nc2ccnc(-c3cnn(S(=O)(=O)C4CC4)c3)n2)ncc1C(=O)NCCCC(F)(F)F [Example 81, 6-((2-(1-(cyclopropylsulfonyl)-1H-pyrazol-4-yl)pyrimidin-4-yl)amino)-4-(isopropylamino)-N-(4,4,4-trifluorobutyl)nicotin-amide] | < 0.05 | < 0.5
